The structures appear in SMILES notation. pIC50: −log10 of the molar value.

The target in this experiment is T1, Endothelial lipase (EL) (Homo sapiens, UniProt Q9Y5X9).
T1 construct: transformed by RAGE technology (Athersys) to overexpress endogenous EL; endogenous in cells; the conditioned medium served as the enzyme source
T1 sequence (Q9Y5X9 21-500): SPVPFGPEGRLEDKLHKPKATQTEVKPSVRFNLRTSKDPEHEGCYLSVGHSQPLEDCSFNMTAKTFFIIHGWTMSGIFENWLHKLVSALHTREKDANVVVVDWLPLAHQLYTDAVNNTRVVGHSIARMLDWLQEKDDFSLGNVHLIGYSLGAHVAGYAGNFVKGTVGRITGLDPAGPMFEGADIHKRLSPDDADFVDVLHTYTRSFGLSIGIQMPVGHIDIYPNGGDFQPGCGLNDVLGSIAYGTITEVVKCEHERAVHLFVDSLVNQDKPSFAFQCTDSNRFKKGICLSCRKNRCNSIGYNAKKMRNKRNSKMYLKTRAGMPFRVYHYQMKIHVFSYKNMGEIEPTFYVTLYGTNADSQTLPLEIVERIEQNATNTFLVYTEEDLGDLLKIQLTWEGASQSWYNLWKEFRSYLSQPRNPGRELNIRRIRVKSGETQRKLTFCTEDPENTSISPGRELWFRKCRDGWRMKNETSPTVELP
Put plainly: Endothelial lipase (EL) enzymatic assay with fluorescent substrate A10070 in DMPG vesicles. The class given is biochemical. The following applies: conditioned media from HT-1080 cells overexpressing endogenous EL; 20 min preincubation at 37° C. As to the method:
Endothelial lipase activity was measured using a fluorescent substrate, A10070, (Invitrogen, CA) doped into an artificial vesicle containing DMPG (Avanti Polar Lipids) as the excipient. Vesicles were prepared by combining 285 μL of 1 mM DMPG in a 1:1 mixture of MeOH and CHCl3 with 15 μL of 1 mM A10070 in a 1:1 mixture of MeOH and CHCl3. The mixture was dried under nitrogen and resuspended in 150 μL of 50 mM HEPES pH 8.0 buffer containing 100 mM NaCl and 0.2 mM EDTA. The sample was allowed to sit at rt for 15 min and then was sonicated 3×4 mins on ice with a Branson Sonicator using duty cycle 1. This preparation provides vesicles with a mole fraction of 0.05 for the FRET substrate.
The enzymatic assay was measured using white, opaque 96-well half area plates. Each well contained 60 μL of assay buffer (50 mM HEPES pH 8.0, 50 mM NaCl and 1 mM CaCl2) and 2 ul of a DMSO solution containing compound of interest. Conditioned media obtained from HT-1080 cells, which were transformed by RAGE technology (Athersys) to overexpress endogenous EL, was added and the reaction was allowed to incubate for 20 min at 37° C. with gentle agitation. The reaction was started by the addition of 20 μL of a 1:4 dilution of vesicles. The final total reaction volume was 100 μL. The reaction rates were measured on a Gemini plate reader with an excitation wavelength of 488 nm and an emission of 530 nm. Readings were taken every 20 seconds for 10 min with agitation between each reading. The slope of the linear portion of the readout was used to calculate the rate of the reaction.
Take `N#CC(C(=O)NCC(=O)NC1CC1)c1nc2cc(-c3ccccc3)c(F)cc2s1` (stereo not drawn) [Example 27, 2-cyano-N-[(cyclopropyl-carbamoyl)methyl]-2-(6-fluoro-5-phenyl-1,3-benzothiazol-2-yl)acetamide]: the pIC50 (as a rule, −log10 of the IC50, conventionally taken in molar units) was 7.89.
Take `N#CC(C(=O)NCC(=O)NC1CC1)c1nc2cc(-c3ccc(C(N)=O)cc3)c(F)cc2s1` (stereo not drawn) [Example 28, 4-{2-[cyano ({[(cyclopropyl-carbamoyl)methyl]carbamoyl})methyl]-6-fluoro-1,3-benzothiazol-5-yl}benzamide]: the pIC50 was more than 9.00.
As to `CN1CCN(C(=O)c2cccc(-c3cc4nc(C(C#N)C(=O)NCC(=O)NC5CC5)sc4cc3F)c2)CC1` (stereo not drawn) [Example 29, 2-cyano-N-[(cyclopropyl-carbamoyl)methyl]-2-{6-fluoro-5-[3-(4-methylpiperazine-1-carbonyl)phenyl]-1,3-benzothiazol-2-yl}acetamide], the pIC50 was 9.00.

The record behind these values is patent US10597370B2, “2-(benzothiazol-2-yl)-2-cyano-acetamide derivatives and their use as endothelial lipase inhibitors” (BRISTOL-MYERS SQUIBB COMPANY, priority 2016, dated 2020).
